Columns and labels:
[1] = Liquid
[2] = xn = mol fraction of the nth substance listed; conditions: Liquid, Falling or rolling sphere viscometry, x1 = 1

CCO [ethanol]
viscosity [mPa·s], [1], Falling or rolling sphere viscometry
Conditions	100 kPa	20000 kPa	40000 kPa	60000 kPa	80000 kPa	100000 kPa
293.15 K	1.194	1.344	1.494	1.647	1.797	1.955
313.15 K	0.826	0.948	1.059	1.171	1.282	1.392
333.15 K	0.59	0.683	0.769	0.851	0.934	1.015
353.15 K	–	0.51	0.574	0.636	0.699	0.763

CCO [ethanol] + Cc1ccccc1
viscosity [mPa·s], [2]
Conditions	100 kPa	20000 kPa	40000 kPa	60000 kPa	80000 kPa	100000 kPa
293.15 K	1.194	1.344	1.494	1.647	1.797	1.955
313.15 K	0.826	0.948	1.059	1.171	1.282	1.392
333.15 K	0.59	0.683	0.769	0.851	0.934	1.015
353.15 K	–	0.51	0.574	0.636	0.699	0.763

CO [methanol]
viscosity [mPa·s], [1], Capillary tube (Ostwald / Ubbelohde) method
Conditions	100 kPa	20000 kPa	40000 kPa	60000 kPa	80000 kPa	100000 kPa
293.15 K	0.583	0.646	0.706	0.767	0.83	0.894
313.15 K	0.445	0.497	0.546	0.593	0.64	0.683
333.15 K	0.343	0.386	0.424	0.462	0.501	0.543
353.15 K	–	0.303	0.337	0.368	0.4	0.433
